In patent US9187458B2, “Cyanoquinoline derivatives” (Tianjin Hemay Bio-Tech Co., LTD., priority 2010, dated 2015):

Key:
[1] = tested on: A431 cells; experiment: A431 Cell Growth Inhibition Test (MTT Assay); type: cell-based, human; conditions: for IC50 / inhibition at 1 µM: Homo sapiens; for IC50: A-431, 68 h incubation; for Growth Inhibition Ratio (%) / inhibition at 1 µM: compound 1 μM, 68 h incubation; for inhibition at 1 µM: A-431, 68 h, read-out: Growth Inhibition Ratio (%)
Method in brief: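 Cells seeded at 2500/well in DMEM/F12 with 10% FBS, grown overnight, then exposed to compound for 68 h at 37 °C, 5% CO2. Viability by MTT (0.5 mg/ml, 4 h), DMSO-solubilised, OD 490 nm; IC50 is concentration giving 50% growth inhibition relative to controls.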

[2] = tested on: A549 cells; experiment: A549 Cell Growth Inhibition Test (MTT Assay); type: cell-based; conditions: Homo sapiens, 72 h incubation
Protocol: A549 Cell Growth Inhibition Test (MTT Assay)
1. Cell strains: […] (human lung caner cell strains);
Culture medium: 90% F12K+10% FBS;
(§1) 1. A plate (10 cm) of cells in logarithmic growth phase normally cultured was collected;
2. The culture solution was sucked out. Tthe plate was washed with 5 ml of PBS 1-2 times;
3. PBS was sucked out. 2 ml of 0.25% pancreatin was added to infiltrate the cells for 1 min;
4. The pancreatin was sucked out. The culture plate was placed in an incubator. Digestion was carried out for about 2 min at 37° C.;
5. 4 ml of complete culture solution was added to the culture plate to stop the digestion. The cells were carefully scoured with micropipette (1 ml) to give a uniform cell suspension. The suspension was implanted into a 96-well cell culture plate by 2500 cells/100 μl per well. The culture plate was incubated overnight under 5% CO2 at 37° C. In day 2, 100 μl of culture solution comprising a compound was added in each well, and further incubated for 72 h under 5% CO2 at 37° C.
(§2) 6. The culture solution was sucked out;
(§3) 7. 100 μl of serum-free culture solution containing 0.5 mg/ml MTT was added in each well, and incubated for 3 h;
(§4) 8. The culture solution was carefully sucked out;
(§5) 9. 100 μl of DMSO was added in each well and vibrated to dissolve;
(§6) 10. OD values were determined at 490 nM.
(§7) 1. Calculation of Relative Inhibition Ratio The inhibition ratio of a compound on cell growth=(PC−n)/(PC−NC)×100%
(§8) IC50: Concentration of a compound where inhibition ratio was 50%. IC50 values were fitted with Origin7.5.

[3] = tested on: Fadu cells; experiment: Fadu Cell Growth Inhibition Test (MTT Assay); type: cell-based; conditions: Homo sapiens, 72 h incubation
Method in brief: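 Fadu head and neck cancer cells in EMEM + 10% FBS, 6000 cells/well, dosed next day and incubated 72 h at 37 °C, 5% CO2. MTT 0.5 mg/ml for 3 h, DMSO solubilization, OD at 490 nm; inhibition ratio from positive and negative controls, IC50 from fitted curve.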

[4] = tested on: NCI-H460 cells; experiment: NCI-H460 Cell Growth Inhibition Test (MTT Assay); type: cell-based; conditions: Homo sapiens, 72 h incubation
Method in brief: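 Cells seeded at 2500 per well, left overnight, then exposed to compound for 72 h at 37 °C, 5% CO2. Viability by MTT (0.5 mg/ml, 3 h), DMSO-dissolved, OD 490 nm; inhibition ratio = (PC−n)/(PC−NC)×100%, IC50 from curve fit.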

[5] = tested on: SK-OV-3 cells; experiment: SK-OV-3 Cell Growth Inhibition Test (MTT Assay); type: cell-based; conditions: Homo sapiens, 72 h incubation
Protocol: SK-OV-3 Cell Growth Inhibition Test (MTT Assay)
Cell strains: SK-OV-3 (human ovarian cancer cell strains);
Culture medium: 90% McCoy's 5A+10% FBS;
as §1
2. The culture solution was sucked out. The plate was washed with 5 ml of PBS 1-2 times;
(§9) 3. PBS was sucked out. 1.5 ml of 0.25% pancreatin was added to infiltrate the cells for 1 min;
4. The pancreatin was sucked out. The culture plate was placed in an incubator. Digestion was carried out for about 5 min at 37° C.;
5. 4.5 ml of complete culture solution was added to the culture plate to stop the digestion.T the cells were carefully scoured with micropipette (1 ml) to give a uniform cell suspension. The suspension was implanted into a 96-well cell culture disc by 4000 cells/100 μl per well. The culture plate was incubated overnight under 5% CO2 at 37° C. In day 2, 100 μl of culture solution comprising a compound was added in each well, and further incubated for 72 h under 5% CO2 at 37° C.
as §2, §3, §4, §5, §6, §7, §8

[6] = tested on: AsPC-1 cells; experiment: AsPC-1 Cell Growth Inhibition Test (MTT Assay); type: cell-based; conditions: Homo sapiens, ASPC1, 72 h incubation
Method in brief: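 Human pancreatic cancer AsPC-1 cells seeded at 8000 cells/well, incubated overnight, then exposed to compound for 72 h at 37 °C, 5% CO2. Viability read by MTT (0.5 mg/ml, 3 h), formazan dissolved in DMSO, OD at 490 nm. Inhibition ratio = (PC−n)/(PC−NC)×100%; IC50 = concentration giving 50% inhibition, curve-fitted.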

[7] = tested on: NCI-N87 cells; experiment: NCI-N87 Cell Growth Inhibition Test (MTT Assay); type: cell-based; conditions: Homo sapiens, 72 h incubation
Protocol: NCI-N87 Cell Growth Inhibition Test (MTT Assay)
1. Cell strains: NCI-N87 (human gastric carcinoma cell strains);
as §1
2. The culture solution was sucked out. The plate was washed wtih 5 ml of PBS 1-2 times;
as §9
4. The pancreatin was sucked out. The culture plate was placed in an incubator. Digestion was carried out for about 12 min at 37° C.;
5. 4.5 ml of complete culture solution was added to the culture plate to stop the digestion. The cells were carefully scoured with micropipette (1 ml) to give a uniform cell suspension. The suspension was implanted into a 96-well cell culture disc by 17000 cells/100 μl per well. The culture plate was incubated overnight under 5% CO2 at 37° C. In day 2, 100 μl of culture solution comprising a compound was added in each well, and further incubated for 72 h under 5% CO2 at 37° C.
as §2, §3, §4
9. 100 μl of DMSO was added in each welland vibrated to dissolve;
as §6
1. Calculation of Rrelative Inhibition Ratio The inhibition ratio of a compound on cell growth=(PC−n)/(PC−NC)×100%
as §8

CN(C)C/C=C/C(=O)Nc1cc2c(Nc3ccc(F)c(Cl)c3)c(C#N)cnc2cc1OC1CCOC1 (centres unmarked) [Example 4, (E)-N-(4-(3-CHLORO-4-FLUOROPHENYLAMINO)-3-CYANO-7-(TETRAHYDROFURAN-3-YL-OXY)QUINOLIN-6-YL)-4-(DIMETHYLAMINO)-BUT-2-ENAMIDE]
IC50 [1]: 68 nM
Growth Inhibition Ratio (%) [1]: 80%
IC50 [2]: 1250 nM
IC50 [3]: 331 nM
IC50 [4]: 1600 nM
IC50 [5]: 409 nM
IC50 [6]: 1000 nM
IC50 [7]: 79 nM

C#Cc1cccc(Nc2c(C#N)cnc3cc(OC4CCOC4)c(NC(=O)/C=C/CN(C)C)cc23)c1 (centres unmarked) [Example 5, (E)-N-(3-CYANO-4-(3-ETHYNYLPHENYLAMINO)-7-(TETRAHYDROFURAN-3-YL-OXY)QUINOLIN-6-YL)-4-(DIMETHYLAMINO)-BUT-2-ENAMIDE]
IC50 [1]: 24 nM
Growth Inhibition Ratio (%) [1]: 85%
IC50 [2]: 1300 nM
IC50 [4]: 1200 nM
IC50 [5]: 195 nM
IC50 [7]: 22 nM

CN(C)C/C=C/C(=O)Nc1cc2c(Nc3ccc(OCc4ccccc4F)c(Cl)c3)c(C#N)cnc2cc1OC1CCOC1 (centres unmarked) [Example 8, (E)-N-(4-(4-(2-FLUOROBENZYLOXY)-3-CHLOROPHENYLAMINO)-3-CYANO-7-(TETRAHYDROFURAN-3-YL-OXY)QUINOLIN-6-YL)-4-(DIMETHYLAMINO)-BUT-2-ENAMIDE]
inhibition at 1 µM [1]: 91%
IC50 [1]: 145 nM
IC50 [2]: 1700 nM
IC50 [3]: 188 nM
IC50 [4]: 1200 nM
IC50 [6]: 878 nM
IC50 [7]: 5.6 nM

CN(C)C/C=C/C(=O)Nc1cc2c(Nc3ccc(OCc4cccc(Cl)c4)c(Cl)c3)c(C#N)cnc2cc1OC1CCOC1 (centres unmarked) [Example 11, (E)-N-(4-(4-(3-CHLOROBENZYLOXY)-3-CHLOROPHENYLAMINO)-3-CYANO-7-(TETRAHYDROFURAN-3-YL-OXY)QUINOLIN-6-YL)-4-(DIMETHYLAMINO)-BUT-2-ENAMIDE]
IC50 [1]: 184 nM
IC50 [2]: 1600 nM
IC50 [3]: 187 nM
IC50 [4]: 1500 nM
IC50 [6]: 1200 nM
IC50 [7]: 11 nM

CN(C)C/C=C/C(=O)Nc1cc2c(Nc3ccc(OCc4ccccc4)c(Cl)c3)c(C#N)cnc2cc1OC1CCOC1 (centres unmarked) [Example 12, (E)-N-(4-(4-(BENZYLOXY)-3-CHLOROPHENYLAMINO)-3-CYANO-7-(TETRAHYDROFURAN-3-YL-OXY)QUINOLIN-6-YL)-4-(DIMETHYLAMINO)-BUT-2-ENAMIDE]
IC50 [1]: 147 nM
IC50 [2]: 2000 nM
IC50 [3]: 202 nM
IC50 [4]: 970 nM
IC50 [6]: 1200 nM
IC50 [7]: 6.1 nM

CN(C)C/C=C/C(=O)Nc1cc2c(Nc3ccc(OCc4ccccc4C#N)c(Cl)c3)c(C#N)cnc2cc1OC1CCOC1 (centres unmarked) [Example 13, (E)-N-(4-(4-(2-CYANOBENZYLOXY)-3-CHLOROPHENYLAMINO)-3-CYANO-7-(TETRAHYDROFURAN-3-YL-OXY)QUINOLIN-6-YL)-4-(DIMETHYLAMINO)-BUT-2-ENAMIDE]
inhibition at 1 µM [1]: 89%
IC50 [1]: 158 nM
IC50 [2]: 1100 nM
IC50 [3]: 300 nM
IC50 [4]: 1800 nM
IC50 [6]: 922 nM
IC50 [7]: 4.4 nM

CN(C)C/C=C/C(=O)Nc1cc2c(Nc3ccc(OCc4cccc(C#N)c4)c(Cl)c3)c(C#N)cnc2cc1OC1CCOC1 (centres unmarked) [Example 15, (E)-N-(4-(4-(3-CYANOBENZYLOXY)-3-CHLOROPHENYLAMINO)-3-CYANO-7-(TETRAHYDROFURAN-3-YL-OXY)QUINOLIN-6-YL)-4-(DIMETHYLAMINO)-BUT-2-ENAMIDE]
inhibition at 1 µM [1]: 91%
IC50 [1]: 370 nM
IC50 [2]: 3900 nM
IC50 [3]: 260 nM
IC50 [4]: 1400 nM
IC50 [6]: 1100 nM
IC50 [7]: 7.1 nM

Cc1ccc(COc2ccc(Nc3c(C#N)cnc4cc(OC5CCOC5)c(NC(=O)/C=C/CN(C)C)cc34)cc2Cl)cc1 (centres unmarked) [Example 19, (E)-N-(4-(4-(4-METHYLBENZYLOXY)-3-CHLOROPHENYLAMINO)-3-CYANO-7-(TETRAHYDROFURAN-3-YL-OXY)QUINOLIN-6-YL)-4-(DIMETHYLAMINO)-BUT-2-ENAMIDE]
IC50 [1]: 390 nM
IC50 [2]: 2000 nM
IC50 [4]: 1100 nM
IC50 [6]: 621 nM
IC50 [7]: 32 nM

CN(C)C/C=C/C(=O)Nc1cc2c(Nc3ccc(OCc4ccccn4)c(Cl)c3)c(C#N)cnc2cc1O[C@@H]1CCOC1 [Example 139, (R,E)-N-(4-(3-CHLORO-4-(PYRIDIN-2-YL-METHOXY)PHENYLAMINO)-3-CYANO-7-(TETRAHYDROFURAN-3-YL-OXY)QUINOLIN-6-YL)-4-(DIMETHYLAMINO)-BUT-2-ENAMIDE]
inhibition at 1 µM [1]: 90%
IC50 [1]: 93 nM
IC50 [2]: 600 nM
IC50 [3]: 201 nM
IC50 [5]: 371 nM
IC50 [6]: 422 nM
IC50 [7]: 7.2 nM

C#Cc1cccc(Nc2c(C#N)cnc3cc(O[C@H]4CCOC4)c(NC(=O)/C=C/CN(C)C)cc23)c1 [Example 140, (S,E)-N-(3-CYANO-4-(3-ETHYNYLPHENYLAMINO)-7-(TETRAHYDROFURAN-3-YL-OXY)QUINOLIN-6-YL)-4-(DIMETHYLAMINO)-BUT-2-ENAMIDE]
inhibition at 1 µM [1]: 87%
IC50 [1]: 26 nM
IC50 [2]: 1600 nM
IC50 [4]: 1100 nM
IC50 [5]: 286 nM
IC50 [7]: 15 nM

C#Cc1cccc(Nc2c(C#N)cnc3cc(O[C@@H]4CCOC4)c(NC(=O)/C=C/CN(C)C)cc23)c1 [Example 141, (R,E)-N-(3-CYANO-4-(3-ETHYNYLPHENYLAMINO)-7-(TETRAHYDROFURAN-3-YL-OXY)QUINOLIN-6-YL)-4-(DIMETHYLAMINO)-BUT-2-ENAMIDE]
inhibition at 1 µM [1]: 80%
IC50 [1]: 50 nM
IC50 [2]: 800 nM
IC50 [4]: 2900 nM
IC50 [5]: 283 nM
IC50 [7]: 32 nM
